Source: patent US20240307362A1 (priority 2019, published 2024)
Values joined by “and” are separate entries in the source; they are usually repeats but may differ in a detail not shown here. Identical values can stand only once. Like-named read-outs stand apart in the source and are kept apart here.

Columns and labels:
Ba/F3-EGFR-WT = assay: Ba/F3 cell survival assay, WT EGFR; assay type: cell-based
Ba/F3-EGFR-insSVD = assay: Ba/F3 cell survival assay, EGFR-insSVD; assay type: cell-based
Procedure, shortened: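 Ba/F3 cells stably expressing WT EGFR or EGFR-insSVD via retrovirus, grown without IL-3 on 10 ng/mL EGF, plated at 4000 cells/well. Compound exposure 48 h at 37 °C; viability read by CellTiter-Glo luminescence.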

[1] = molecular target: mutEGFR (D770_N771insSVD) (Homo sapiens (Human), UniProt P00533, INS770SVD); assay: biochemical; settings: mutEGFR (D770_N771 insSVD) at 2 mM ATP IC50, 2 mM ATP
Chain of mutEGFR (D770_N771insSVD) (P00533 other isoform, or with tags, fused parts or gaps ins SVD behind 770): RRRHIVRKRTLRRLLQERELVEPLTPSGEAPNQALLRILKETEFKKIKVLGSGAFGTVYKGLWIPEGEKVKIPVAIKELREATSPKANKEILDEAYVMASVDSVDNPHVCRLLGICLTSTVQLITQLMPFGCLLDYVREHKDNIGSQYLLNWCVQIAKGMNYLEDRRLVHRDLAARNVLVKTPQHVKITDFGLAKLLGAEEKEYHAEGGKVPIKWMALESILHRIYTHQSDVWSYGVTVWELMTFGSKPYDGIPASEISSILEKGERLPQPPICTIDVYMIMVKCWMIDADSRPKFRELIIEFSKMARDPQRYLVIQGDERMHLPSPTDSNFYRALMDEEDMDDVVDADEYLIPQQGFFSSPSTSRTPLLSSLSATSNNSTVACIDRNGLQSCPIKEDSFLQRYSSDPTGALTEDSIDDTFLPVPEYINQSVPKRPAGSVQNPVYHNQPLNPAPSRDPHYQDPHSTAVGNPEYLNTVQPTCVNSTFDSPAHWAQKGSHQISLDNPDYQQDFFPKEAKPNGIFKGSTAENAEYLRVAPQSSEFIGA

human Bub1 = human Bub1 (Homo sapiens (Human), UniProt O43683); assay: Bub1 high ATP kinase assay (TR-FRET); assay type: biochemical
Chain of human Bub1 (O43683 704-1085): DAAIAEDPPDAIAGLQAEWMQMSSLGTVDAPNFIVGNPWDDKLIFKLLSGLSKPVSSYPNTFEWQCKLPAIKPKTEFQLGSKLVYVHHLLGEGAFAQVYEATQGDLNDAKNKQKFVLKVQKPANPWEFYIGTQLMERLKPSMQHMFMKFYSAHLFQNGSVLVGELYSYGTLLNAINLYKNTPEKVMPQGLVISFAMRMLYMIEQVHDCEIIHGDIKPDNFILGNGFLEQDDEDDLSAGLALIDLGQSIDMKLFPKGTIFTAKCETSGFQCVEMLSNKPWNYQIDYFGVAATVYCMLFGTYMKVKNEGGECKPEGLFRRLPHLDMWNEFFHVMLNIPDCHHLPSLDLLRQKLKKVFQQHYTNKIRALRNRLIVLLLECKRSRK
Source text: Bub1-inhibitory activity of compounds of the present invention at a high ATP concentration was quantified employing the Bub1 TR-FRET high ATP kinase assay as described in the following paragraphs.
N-terminally His6-tagged recombinant catalytic domain of human Bub1 (amino acids 704-1085), expressed in insect cells (Hi5) and purified by Ni-NTA affinity chromatography and subsequent size exclusion chromatography, was used as enzyme.

[2] = read-out: BA/F3 (wild type) IC50, cell viability, Cell Titer-Glo, 48 h, with 10 ng/mL EGF, without IL-3
[3] = read-out: BA/F3 (insSVD) IC50, cell viability, Cell Titer-Glo, 48 h, with 10 ng/mL EGF, without IL-3
[4] = Bub1 high ATP (2 mM) IC50, 2 mM ATP
[5] = Mus musculus, BaF3, 48 h, read-out: BA/F3 (wild type) IC50, cell viability, Cell Titer-Glo, 48 h, with 10 ng/mL EGF, without IL-3
[6] = Mus musculus, BaF3, 48 h, read-out: BA/F3 (insSVD) IC50, cell viability, Cell Titer-Glo, 48 h, with 10 ng/mL EGF, without IL-3
[7] = read-out: Bub1 high ATP (2 mM) IC50, 2 mM ATP

| SMILES | IC50 (Ba/F3-EGFR-WT; [2]) | IC50 (Ba/F3-EGFR-insSVD; [3]) | IC50 [1] | IC50 (human Bub1; [4]) | IC50 (Ba/F3-EGFR-WT; [5]) | IC50 (Ba/F3-EGFR-insSVD; [6]) | IC50 (human Bub1; [7]) |
| --- | --- | --- | --- | --- | --- | --- | --- |
| COc1c(Cl)cc(F)cc1Nc1c(-c2ccncc2OCC2(C)CCO2)[nH]c2c1C(=O)NCC2 (single isomer, unassigned) [Example 70, 3-(3-chloro-5-fluoro-2-methoxyanilino)-2-(3-{[2-methyloxetan-2-yl]methoxy}pyridin-4-yl)-1,5,6,7-tetrahydro-4H-pyrrolo[3,2-c]pyridin-4-one] | 537 nM | 32.7 nM | 0.161 nM | 18800 nM and > 20000 nM | – | – | – |
| CCC1(COc2cnccc2-c2[nH]c3c(c2Nc2cccc(Cl)c2C)C(=O)NCC3)COC1 [Example 23, 3-(3-chloro-2-methylanilino)-2-{3-[(3-ethyloxetan-3-yl)methoxy]pyridin-4-yl}-1,5,6,7-tetrahydro-4H-pyrrolo[3,2-c]pyridin-4-one] | – | – | 0.96 nM | – | 3380 nM | 190 nM | > 5710 nM |
| Cc1cccc(Nc2c(-c3ccncc3OCC3(C)CCO3)[nH]c3c2C(=O)NCC3)c1Cl (single isomer, unassigned; (-)) [Example 57, (−)-3-(2-chloro-3-methylanilino)-2-{3-[(2-methyloxetan-2-yl)methoxy]pyridin-4-yl}-1,5,6,7-tetrahydro-4H-pyrrolo[3,2-c]pyridin-4-one] | 3250 nM | 402 nM | 0.264 nM | – | – | – | 13000 nM |
| Cc1c(F)cccc1Nc1c(-c2ccncc2OCC2(C)CCO2)[nH]c2c1C(=O)NCC2 (single isomer, unassigned; (+)) [Example 85, (+)-3-(3-fluoro-2-methylanilino)-2-(3-{[2-methyloxetan-2-yl]methoxy}pyridin-4-yl)-1,5,6,7-tetrahydro-4H-pyrrolo[3,2-c]pyridin-4-one] | 1260 nM | 43.7 nM | 0.107 nM | – | – | – | 15800 nM |
| Cc1cccc(Nc2c(-c3ccncc3OCC3(C)CCO3)[nH]c3c2C(=O)NCC3)c1Cl (racemic) [Example 55, 3-(2-chloro-3-methylanilino)-2-{3-[(2-methyloxetan-2-yl)methoxy]pyridin-4-yl}-1,5,6,7-tetrahydro-4H-pyrrolo[3,2-c]pyridin-4-one] | – | – | 0.138 nM | – | 593 nM | 67.3 nM | 15400 nM |
| Cc1c(Cl)cccc1Nc1c(-c2ccncc2OCC2(C)CCO2)[nH]c2c1C(=O)NCC2 (single isomer, unassigned; (-)) [Example 81, (−)-3-(3-chloro-2-methylanilino)-2-(3-{[2-methyloxetan-2-yl]methoxy}pyridin-4-yl)-1,5,6,7-tetrahydro-4H-pyrrolo[3,2-c]pyridin-4-one] | – | – | 0.129 nM | – | 664 nM | 96.4 nM | 5050 nM |
| O=C1NCCc2[nH]c(-c3ccncc3OCC3COC3)c(Nc3cccc(F)c3Cl)c21 [Example 16, 3-(2-chloro-3-fluoroanilino)-2-{3-[(oxetan-3-yl)methoxy]pyridin-4-yl}-1,5,6,7-tetrahydro-4H-pyrrolo[3,2-c]pyridin-4-one] | – | – | 0.0988 nM | – | 1140 nM | 193 nM | 13900 nM |
| Cc1c(Cl)cccc1Nc1c(-c2ccncc2OC[C@]2(C)CCO2)[nH]c2c1C(=O)NCC2 (single isomer, unassigned) [Example 82, (+)-3-(3-chloro-2-methylanilino)-2-(3-{[2-methyloxetan-2-yl]methoxy}pyridin-4-yl)-1,5,6,7-tetrahydro-4H-pyrrolo[3,2-c]pyridin-4-one] | – | – | 0.134 nM | – | 673 nM | 34.8 nM | 5980 nM |
| Cc1c(F)cccc1Nc1c(-c2ccncc2OCC2(C)CCO2)[nH]c2c1C(=O)NCC2 (racemic) [Example 83, 3-(3-fluoro-2-methylanilino)-2-(3-{[2-methyloxetan-2-yl]methoxy}pyridin-4-yl)-1,5,6,7-tetrahydro-4H-pyrrolo[3,2-c]pyridin-4-one] | – | – | 0.246 nM | – | 986 nM | 41.9 nM | > 20000 nM |
| COc1c(Cl)cc(F)cc1Nc1c(-c2ccncc2OCC2(C)CCO2)[nH]c2c1C(=O)NCC2 (racemic) [Example 68, 3-(3-chloro-5-fluoro-2-methoxyanilino)-2-(3-{[2-methyloxetan-2-yl]methoxy}pyridin-4-yl)-1,5,6,7-tetrahydro-4H-pyrrolo[3,2-c]pyridin-4-one] | – | – | 0.215 nM | – | 1260 nM | 103 nM | > 20000 nM |
| COc1c(F)cccc1Nc1c(-c2ccncc2OC[C@H]2CCN2C)[nH]c2c1C(=O)NCC2 [Example 79, 3-(3-fluoro-2-methoxyanilino)-2-(3-{[(2R)-1-methylazetidin-2-yl]methoxy}pyridin-4-yl)-1,5,6,7-tetrahydro-4H-pyrrolo[3,2-c]pyridin-4-one] | – | – | 0.718 nM | – | 712 nM | 113 nM | – |
| COc1c(Cl)cccc1Nc1c(-c2ccncc2OC[C@@H]2CCN2CC(F)(F)F)[nH]c2c1C(=O)NCC2 [Example 29, 3-(3-chloro-2-methoxyanilino)-2-(3-{[(2S)-1-(2,2,2-trifluoroethyl)azetidin-2-yl]methoxy}pyridin-4-yl)-1,5,6,7-tetrahydro-4H-pyrrolo[3,2-c]pyridin-4-one] | – | – | 0.304 nM | – | 1040 nM | 60.8 nM | – |
| COc1c(Cl)cccc1Nc1c(-c2ccncc2OC[C@H]2CCN2CC(F)(F)F)[nH]c2c1C(=O)NCC2 [Example 30, 3-(3-chloro-2-methoxyanilino)-2-(3-{[(2R)-1-(2,2,2-trifluoroethyl)azetidin-2-yl]methoxy}pyridin-4-yl)-1,5,6,7-tetrahydro-4H-pyrrolo[3,2-c]pyridin-4-one] | – | – | 0.346 nM | – | 402 nM | 10.4 nM | – |
| CCN1CC[C@H]1COc1cnccc1-c1[nH]c2c(c1Nc1cccc(Cl)c1OC)C(=O)NCC2 [Example 28, 3-(3-chloro-2-methoxyanilino)-2-(3-{[(2S)-1-ethylazetidin-2-yl]methoxy}pyridin-4-yl)-1,5,6,7-tetrahydro-4H-pyrrolo[3,2-c]pyridin-4-one] | – | – | 1.06 nM | – | 1780 nM | 181 nM | – |
| COc1c(Cl)cccc1Nc1c(-c2ccncc2OC[C@@H]2CCN2C)[nH]c2c1C(=O)NCC2 [Example 27, 3-(3-chloro-2-methoxyanilino)-2-(3-{[(2S)-1-methylazetidin-2-yl]methoxy}pyridin-4-yl)-1,5,6,7-tetrahydro-4H-pyrrolo[3,2-c]pyridin-4-one] | – | – | 0.445 nM | – | 937 nM | 36.5 nM | – |
| COc1c(Nc2c(-c3ccncc3OCC3CCO3)[nH]c3c2C(=O)NCC3)ccc(F)c1Cl (single isomer, unassigned; (-)) [Example 14, (−)-3-(3-chloro-4-fluoro-2-methoxyanilino)-2-{3-[(oxetan-2-yl)methoxy]pyridin-4-yl}-1,5,6,7-tetrahydro-4H-pyrrolo[3,2-c]pyridin-4-one] | – | 438 nM | – | – | 1660 nM | – | 16300 nM |
| CCC1(COc2cnccc2-c2[nH]c3c(c2Nc2cccc(Cl)c2Cl)C(=O)NCC3)COC1 [Example 87, 3-(2,3-dichloroanilino)-2-{3-[(3-ethyloxetan-3-yl)methoxy]pyridin-4-yl}-1,5,6,7-tetrahydro-4H-pyrrolo[3,2-c]pyridin-4-one] | – | – | – | – | 813 nM | 119 nM | > 5700 nM |
| COc1c(Cl)cccc1Nc1c(-c2ccncc2OCC2OCC2(C)C)[nH]c2c1C(=O)NCC2 (racemic) [Example 49, 3-(3-chloro-2-methoxyanilino)-2-{3-[(3,3-dimethyloxetan-2-yl)methoxy]pyridin-4-yl}-1,5,6,7-tetrahydro-4H-pyrrolo[3,2-c]pyridin-4-one] | – | – | – | – | 426 nM | 12.5 nM | > 20000 nM |
| COc1c(F)cccc1Nc1c(-c2ccncc2OCC2COC2)[nH]c2c1C(=O)NCC2 [Example 18, 3-(3-fluoro-2-methoxyanilino)-2-{3-[(oxetan-3-yl)methoxy]pyridin-4-yl}-1,5,6,7-tetrahydro-4H-pyrrolo[3,2-c]pyridin-4-one] | – | – | – | – | 819 nM | 80.1 nM | 12100 nM |
| Cc1cccc(Nc2c(-c3ccncc3OCC3OCC3(C)C)[nH]c3c2C(=O)NCC3)c1Cl (single isomer, unassigned; (+)) [Example 59, (+)-3-(2-chloro-3-methylanilino)-2-{3-[(3,3-dimethyloxetan-2-yl)methoxy]pyridin-4-yl}-1,5,6,7-tetrahydro-4H-pyrrolo[3,2-c]pyridin-4-one] | 655 nM | 59.9 nM | – | – | – | – | > 20000 nM |
| COc1c(F)cccc1Nc1c(-c2ccncc2OCCC2CCO2)[nH]c2c1C(=O)NCC2 (single isomer, unassigned) [Example 45, 3-(3-fluoro-2-methoxyanilino)-2-{3-[2-(oxetan-2-yl)ethoxy]pyridin-4-yl}-1,5,6,7-tetrahydro-4H-pyrrolo[3,2-c]pyridin-4-one] | 746 nM | 46.4 nM | – | 12700 nM | – | – | – |
